{"source": "patent US7879566B2", "about": "“Methods for the identification of modulators of OSGPR114 or OSGPR78 activity, and their use in the treatment of disease” (OSI Pharmaceuticals, Inc., priority 2003, dated 2011)", "key": {"[1]": {"test_system": "CHO cells", "assay": "FLIPR intracellular calcium assay, CHO cells", "format": "cell-based, hamster", "method": "For example, in one method employed herein, CHO and CHO-114 cells were seeded at a concentration of 50K cells/well in […] growth media in clear, flat-bottom 96-well black assay plates and incubated overnight at 37 C. The growth media is aspirated from the cells and a dye solution ([…]) added to each well. The dye solution consists of 2 mM probenecid, 2 mM HBSS, […] in a growth media minus antibiotics solution. The cells are loaded with the dye for 1 h at 37 C before aspiration and rinsing with wash buffer (20 mM HBSS+2 mM Probenecid). Compound plates are then prepared with 4× compound/control. 150 ul of wash buffer is added to each well. Once the FLIPR is fully calibrated, compound is added to the plate and the release of calcium measured using 0.4 exposure length and a laser set at 0.3W."}, "[2]": {"test_system": "HCT-8 cells", "assay": "LPA effect on cell proliferation (Cell TiterGlo)", "format": "cell-based, human", "method": "(§1) The effect of LPA on cell proliferation (Cell TiterGlo assay, Promega) and induction of apoptosis (Apo-One Caspase 3/7 assay, Promega) was measured in the presence and absence of serum. Cell-titer Glo is an assay that quantitates ATP as a measurement of the number of viable cells in a culture. The assay utilizes a luciferase-based luminescent signal. The Apo-One assay utilizes a profluorescent caspase 3/7 consensus substrate to measure the activation of caspase in the sample. The experiments were conducted in serum-free media as it is known that serum contains high concentrations of LPA (of the order of 10-30 uM). Briefly, cells were plated in 96-well plates at a density of 20,000 cells/well. After 24 h the serum-containing media was removed from the cells and replaced with either serum-containing or serum-free media. After 24 h LPA, at concentrations from 1-100 μM was added to the cells. 24 h later the induction of apoptosis and the level of cellular proliferation was measured using the Cell titer-glo or Caspase 3/7 Apo-One assay kits commercially available from Promega."}, "[3]": {"test_system": "HCT-8 cells", "assay": "LPA effect on apoptosis (Apo-One Caspase 3/7)", "format": "cell-based, human", "method": "as §1"}, "[4]": {"test_system": "ERK in ASPC-1 cells", "assay": "ERK phosphorylation by LPA", "format": "cell-based, human", "details": "10 μM LPA, 3 mins", "method": "(§2) FIG. 23: Ability of LPA to phosphorylate ERK in cell lines known to express OSGPR114. 10 μM LPA and 1 μM EGF were used for this experiment, and the cells were stimulated with ligand for 3 mins prior to lysing.\n(§3) One of the principal proliferative signaling pathways is the activation of ERK. […] However, the ability of LPA acting at OSGPR114 to effect ERK is unknown. HCT-8 cells, which express OSGPR114 at high levels, provide one of the best models available. […] This evidence supporting the hypothesis that LPA, likely acting at least in part at OSGPR114, induces ERK activation, a signaling pathway that is known to stimulate cellular proliferation."}, "[5]": {"test_system": "ERK in HCT-8 cells", "assay": "ERK phosphorylation by LPA", "format": "cell-based, human", "details": "10 μM LPA, 3 mins", "method": "as §2, §3"}, "[6]": {"test_system": "EGFR in HCT-8 cells", "assay": "EGFR transactivation, Western blot with phospho-tyrosine specific antibody", "format": "cell-based, human", "details": "10 μM", "description": "FIG. 24: Western blot showing the ability of LPA to transactivate EGFR in HCT-8 cells, as assessed using a phospho-tyrosine specific antibody.\nThe ability of LPA to phosphorylate ERK1/2 has been extensively described in the literature, and three principal mechanisms have been described for this effect. […] The first of these pathways involves β-arrestin recruitment and activation of Src, which then transactivates the RTK. The second of these pathways involves She which is recruited by LPA and can itself activate membrane-bound metalloproteases (e.g. ADAM10) which causes release of heparin-bound epidermal growth factor (EGF) which can then activate EGF receptor. EGF and activation of the EGF receptor is a well known proliferative pathway for many cell lines. The possibility of LPA causing transactivation of EGFR in HCT-8 cells was tested as the EGFR signaling pathway is known to be present and active in these cells. […] From the LPA-based literature, the potential for LPA to also transactivate other RTKs, such as PDGFR for example, in these cells is a very likely possibility."}, "[7]": {"test_system": "SHP-2 in HCT-8 cells", "assay": "SHP-2 activation, phospho-specific antibody", "format": "cell-based, human", "details": "10 uM", "method": "(§4) FIGS. 25A-C. LPA (10 uM) activation of Shc (A), paxillin (B) and SHP-2(C) in HCT-8 cell lysates. Phospho-specific antibodies were used to detect the activated proteins.\n(§5) Many of the growth and survival signaling pathways of cancer cells have been identified. […] The protein She is an adaptor protein and the protein phosphatase SHP-2 are known to link the activation of multiple growth factor receptors to their downstream signaling pathways in cancer cells (For review see Yart et al. (2003) Current Cancer Drug Targets 3:177-192). These proteins are involved in mitogenic signaling by linking growth stimuli to the Ras-mitogen-activated protein kinase cascade and the PI3K survival pathway. […] Additionally, paxillin is a scaffold molecule intricately involved in the regulation of focal adhesions in cancer cells. It is therefore involved in the regulation of cell spreading and motility and is controlled by a multitude of signaling moieties including growth factors, and their downstream signaling molecules. Paxillin recruits these signaling components into specific cell compartments known as focal adhesions (For review, see Schaller (2001) Oncogene 20:6459-72). […] By treating HCT-8 cells with LPA (10 uM), the effect of LPA on the phosphorylation of paxillin was measured using activation state specific antibodies ([…])."}, "[8]": {"test_system": "paxillin in HCT-8 cells", "assay": "Paxillin phosphorylation, activation state specific antibodies", "format": "cell-based, human", "details": "10 uM", "method": "as §4, §5"}, "[9]": {"test_system": "Akt in CHO cell line stably transfected with OSGPR114", "assay": "Akt phosphorylation, phospho-specific Akt antibody", "format": "cell-based", "details": "10 uM, 3 minutes", "method": "FIG. 26. Effect of LPA (10 μM), EGF (1 μM) and DMSO on levels of phospho-Akt as a in a CHO-K1 cell line stably transfected with OSGPR114.\nThe protein Akt is a well characterized survival pathway for many cancer cells and is a pathway that can be induced by multiple cell growth factors (For review, see Marte and Downward (1997) Trends Biochem. Sci. 22:355-358). […] The cells used for this experiment were a CHO cell line stably transfected with OSGPR114. The cells were treated with vehicle, LPA (10 uM) or EGF (1 uM) for 3 minutes."}, "[10]": {"details": "serum free conditions, LPA 1-100 μM, 24 h"}}}
{"substance": "lysophosphatidic acid [LPA]", "values": [{"measurement": "change in intracellular calcium concentration", "setting": "[1]", "value": "no significant change"}, {"measurement": "cell growth / proliferation", "setting": "[2]; presence of 10% FCS", "value": "no statistically significant effects"}, {"measurement": "cell growth / proliferation", "setting": "[2]; [10]", "value": "induced growth of the cells in a concentration dependent manner"}, {"measurement": "apoptosis", "setting": "[3]; presence of 10% FCS", "value": "no statistically significant effects"}, {"measurement": "apoptosis induced through serum starving", "setting": "[3]; [10]", "value": "reversed apoptosis"}, {"measurement": "ERK activation", "setting": "[4]", "value": "stimulate ERK"}, {"measurement": "ERK activation", "setting": "[5]", "value": "stimulate ERK"}, {"measurement": "EGFR transactivation", "setting": "[6]", "value": "capable of transactivating EGFR"}, {"measurement": "phosphorylation of SHP-2", "setting": "[7]", "value": "induced the phosphorylation"}, {"measurement": "phosphorylated paxillin", "setting": "[8]", "value": "highly significant increase in phosphorylated paxillin"}, {"measurement": "phosphorylation of Akt", "setting": "[9]", "value": "stimulate phosphorylation of Akt"}]}
